In patent US20090118350A1, “Biomarkers for Identifying Efficacy of Tegaserod in Patients with Chronic Constipation” (priority 2005, published 2009):

Tested on: patients with chronic constipation
Test: Clinical trial, secondary efficacy RESP12: increase of 1 or more CSBM/week over baseline after 12 weeks of treatment, by subgroup and genotype
Assay type: in vivo, human
Settings: for Odds Ratio: 6-mg bid vs placebo; for % Responders T6 / Odds Ratio (T6 v P) / % Responders: 6-mg bid
Procedure: Introduction. A clinical trial was performed to evaluate the efficacy of tegaserod (Zelmac®/Zelnorm™) at 6 mg bid (12 mg/day) or 2 mg bid (4 mg/day) vs. placebo by measuring the number of complete spontaneous bowel movements (CSBM) during the first 4 weeks of treatment. Secondary objectives included evaluating the number of CSBM during the entire 12-week treatment period, bowel habits, laxative use, and safety and tolerability issues. The clinical trial design consisted of a 2-week baseline period without medication, a 12-week, randomized, double-blind, placebo-controlled treatment period, and a 4-week withdrawal period without study medication. As part of the clinical trial, DNA was collected from patients at screening for pharmacogenetic analysis to evaluate genetic polymorphisms relating to drug targets and disease aetiology.
Clinical assessments. […] The primary efficacy endpoint evaluated was the increase of 1 or more CSBM/week over baseline after 4 weeks of treatment. A secondary endpoint evaluated in this genotyping study was RESP12, the increase of 1 of more CSBM/week over baseline after 12 weeks of treatment. Patients were classified as responders if they met these criteria and had completed at least 7 days of treatment. Additional secondary efficacy assessments were evaluated based on the weekly diary assessments, such as bothersome constipation, bothersome abdominal pain, and satisfaction with bowel habits at the end of the 12-week treatment period (using the baseline value as a co-variant for analysis).
Statistical analysis. Statistical analysis was performed using SAS version 8.2 (The SAS Institute, Cary, N.C., USA). Analysis methods included Fisher's Exact tests, analysis of Covariance (ANCOVA), logistic regression, and Mantel-Haenzel tests to determine odds ratios and 95% confidence intervals, with significance established at p<0.05. Calculation of linkage disequilibrium was performed using the GOLD (graphical overview of linkage disequilibrium) method described by Abecasis & Cookson, Bioinformatics 16: 182-3 (2000).
Secondary efficacy endpoint: response after 12 weeks of treatment. The same comparison as above was performed using the secondary efficacy endpoint of a mean increase of 1 or more CSBM/week over baseline after 12 weeks of treatment. The results for the 12 individual “high responder” SNPs are presented in TABLE 9 and the results using the comparison of individuals with or without at least one of the twelve SNPs is presented in TABLE 10.

[1] = All Caucasians (ITT, >=7 days), Age <65, M + F
[2] = All Caucasians (ITT, >=7 days), Age >=65, M + F
[3] = All Caucasians (ITT, >=7 days), Age All, Female
[4] = All Caucasians (ITT, >=7 days), Age All, M + F
[5] = All Caucasians (ITT, >=7 days), Age All, Male
[6] = All genotyped (ITT, >=7 days), Age <65, M + F
[7] = All genotyped (ITT, >=7 days), Age >=65, M + F
[8] = All genotyped (ITT, >=7 days), Age All, Female
[9] = All genotyped (ITT, >=7 days), Age All, M + F
[10] = All genotyped (ITT, >=7 days), Age All, Male
[11] = All patients (ITT, >=7 days), Age <65, M + F
[12] = All patients (ITT, >=7 days), Age >=65, M + F
[13] = All patients (ITT, >=7 days), Age All, Female
[14] = All patients (ITT, >=7 days), Age All, M + F
[15] = All patients (ITT, >=7 days), Age All, Male
[16] = Caucasians genotyped (ITT, >=7 days), Age <65, M + F
[17] = Caucasians genotyped (ITT, >=7 days), Age >=65, M + F
[18] = Caucasians genotyped (ITT, >=7 days), Age All, Female
[19] = Caucasians genotyped (ITT, >=7 days), Age All, M + F
[20] = Caucasians genotyped (ITT, >=7 days), Age All, Male
[21] = Female (All ages), 0-12 of the 12 SNPs
[22] = Female (All ages), 0 of the 12 SNPs
[23] = Female (All ages), 1-12 of the 12 SNPs
[24] = M + F (<65), 0-12 of the 12 SNPs
[25] = M + F (<65), 1-12 of the 12 SNPs
[26] = M + F (>=65), 0-12 of the 12 SNPs
[27] = M + F (>=65), 1-12 of the 12 SNPs
[28] = M + F (All ages), 0-12 of the 12 SNPs
[29] = M + F (All ages), 0 of the 12 SNPs
[30] = M + F (All ages), 1-12 of the 12 SNPs
[31] = Male (All ages), 0-12 of the 12 SNPs
[32] = Male (All ages), 0 of the 12 SNPs
[33] = Male (All ages), 1-12 of the 12 SNPs

[H]/N=C(/NCCCCC)N/N=C/c1c[nH]c2ccc(OC)cc12 [tegaserod, Tegaserod]
Odds Ratio [1]: 2.8
Odds Ratio [2]: 1.4
Odds Ratio [3]: 2.5
Odds Ratio [4]: 2.5
Odds Ratio [5]: 2.5
Odds Ratio [6]: 2.6
Odds Ratio [7]: 2.6
Odds Ratio [8]: 2.5
Odds Ratio [9]: 2.6
Odds Ratio [10]: 2.9
Odds Ratio [11]: 2.3
Odds Ratio [12]: 1.6
Odds Ratio [13]: 2.2
Odds Ratio [14]: 2.3
Odds Ratio [15]: 2.6
Odds Ratio [16]: 3.0
Odds Ratio [17]: 2.3
Odds Ratio [18]: 2.8
Odds Ratio [19]: 2.8
Odds Ratio [20]: 3.0
% Responders T6 (0 of 14 SNPs): 39%
Odds Ratio (T6 v P) (0 of 14 SNPs): 1.2
% Responders T6 (>=1 of 14 SNPs): 54%
Odds Ratio (T6 v P) (>=1 of 14 SNPs): 4.4
% Responders T6 (AQP3 (1838) genotype CC): 47%
Odds Ratio (T6 v P) (AQP3 (1838) genotype CC): 2.7
% Responders T6 (AQP3 (1838) genotype CG): 49%
Odds Ratio (T6 v P) (AQP3 (1838) genotype CG): 2.5
% Responders T6 (AQP3 (1838) genotype GG): 64%
Odds Ratio (T6 v P) (AQP3 (1838) genotype GG): 8.1
% Responders [1]: 48%
% Responders [2]: 38%
% Responders [3]: 47%
% Responders [4]: 47%
% Responders [5]: 45%
% Responders [6]: 47%
% Responders [7]: 56%
% Responders [8]: 47%
% Responders [9]: 47%
% Responders [10]: 52%
% Responders [11]: 46%
% Responders [12]: 40%
% Responders [13]: 46%
% Responders [14]: 46%
% Responders [15]: 43%
% Responders [16]: 49%
% Responders [17]: 53%
% Responders [18]: 48%
% Responders [19]: 49%
% Responders [20]: 57%
% Responders T6 [21]: 48%
Odds Ratio (T6 v P) [21]: 2.8
% Responders T6 [22]: 36%
Odds Ratio (T6 v P) [22]: 1.4
% Responders T6 [23]: 61%
Odds Ratio (T6 v P) [23]: 5.5
% Responders T6 (HTR3B (3755) genotype AA): 49%
Odds Ratio (T6 v P) (HTR3B (3755) genotype AA): 3.0
% Responders T6 (HTR3B (3755) genotype AC): 47%
Odds Ratio (T6 v P) (HTR3B (3755) genotype AC): 2.3
% Responders T6 (HTR3B (3755) genotype CC): 67%
Odds Ratio (T6 v P) (HTR3B (3755) genotype CC): 5.1
% Responders T6 (HTR4 (1746) genotype CC): 44%
Odds Ratio (T6 v P) (HTR4 (1746) genotype CC): 3.1
% Responders T6 (HTR4 (1746) genotype CT): 49%
Odds Ratio (T6 v P) (HTR4 (1746) genotype CT): 2.6
% Responders T6 (HTR4 (1746) genotype TT): 70%
Odds Ratio (T6 v P) (HTR4 (1746) genotype TT): 3.2
% Responders T6 (HTR4 (3743) genotype AA): 48%
Odds Ratio (T6 v P) (HTR4 (3743) genotype AA): 3.7
% Responders T6 (HTR4 (3743) genotype AC): 52%
Odds Ratio (T6 v P) (HTR4 (3743) genotype AC): 4.7
% Responders T6 (HTR4 (3743) genotype CC): 78%
Odds Ratio (T6 v P) (HTR4 (3743) genotype CC): 8.2
% Responders T6 (HTR4 (3747) genotype AA): 41%
Odds Ratio (T6 v P) (HTR4 (3747) genotype AA): 2.7
% Responders T6 (HTR4 (3747) genotype AT): 54%
Odds Ratio (T6 v P) (HTR4 (3747) genotype AT): 3.1
% Responders T6 (HTR4 (3747) genotype TT): 65%
Odds Ratio (T6 v P) (HTR4 (3747) genotype TT): 3.0
% Responders T6 (HTR4 (3753) genotype CC): 45%
Odds Ratio (T6 v P) (HTR4 (3753) genotype CC): 3.1
% Responders T6 (HTR4 (3753) genotype CT): 50%
Odds Ratio (T6 v P) (HTR4 (3753) genotype CT): 2.7
% Responders T6 (HTR4 (3753) genotype TT): 70%
Odds Ratio (T6 v P) (HTR4 (3753) genotype TT): 3.5
% Responders T6 (HTR4 (3754) genotype AA): 50%
Odds Ratio (T6 v P) (HTR4 (3754) genotype AA): 4.1
% Responders T6 (HTR4 (3754) genotype AT): 45%
Odds Ratio (T6 v P) (HTR4 (3754) genotype AT): 2.0
% Responders T6 (HTR4 (3754) genotype TT): 63%
Odds Ratio (T6 v P) (HTR4 (3754) genotype TT): 2.8
% Responders T6 (HTR4 (3756) genotype AA): 39%
Odds Ratio (T6 v P) (HTR4 (3756) genotype AA): 2.6
% Responders T6 (HTR4 (3756) genotype AC): 54%
Odds Ratio (T6 v P) (HTR4 (3756) genotype AC): 3.0
% Responders T6 (HTR4 (3756) genotype CC): 71%
Odds Ratio (T6 v P) (HTR4 (3756) genotype CC): 4.6
% Responders T6 [24]: 49%
Odds Ratio (T6 v P) [24]: 3.0
% Responders T6 (M + F (<65), 0 of the 12 SNPs): 37%
Odds Ratio (T6 v P) (M + F (<65), 0 of the 12 SNPs): 1.6
% Responders T6 [25]: 62%
Odds Ratio (T6 v P) [25]: 5.6
% Responders T6 [26]: 53%
Odds Ratio (T6 v P) [26]: 2.3
% Responders T6 (M + F (>=65), 0 of the 12 SNPs): 29%
Odds Ratio (T6 v P) (M + F (>=65), 0 of the 12 SNPs): 0.4
% Responders T6 [27]: 70%
Odds Ratio (T6 v P) [27]: 10.1
% Responders T6 [28]: 49%
Odds Ratio (T6 v P) [28]: 2.8
% Responders T6 [29]: 36%
Odds Ratio (T6 v P) [29]: 1.3
% Responders T6 [30]: 63%
Odds Ratio (T6 v P) [30]: 6.0
% Responders T6 (MLN (1783) genotype CC): 49%
Odds Ratio (T6 v P) (MLN (1783) genotype CC): 2.6
% Responders T6 (MLN (1783) genotype CT): 44%
Odds Ratio (T6 v P) (MLN (1783) genotype CT): 2.2
% Responders T6 (MLN (1783) genotype TT): 67%
Odds Ratio (T6 v P) (MLN (1783) genotype TT): 12.0
% Responders T6 [31]: 57%
Odds Ratio (T6 v P) [31]: 3.0
% Responders T6 [32]: 40%
Odds Ratio (T6 v P) [32]: 0.8
% Responders T6 [33]: 73%
Odds Ratio (T6 v P) [33]: 13.3
% Responders T6 (SCNN1A (3806) genotype GG): 62%
Odds Ratio (T6 v P) (SCNN1A (3806) genotype GG): 5.9
% Responders T6 (SCNN1A (3806) genotype GT): 49%
Odds Ratio (T6 v P) (SCNN1A (3806) genotype GT): 2.6
% Responders T6 (SCNN1A (3806) genotype TT): 44%
Odds Ratio (T6 v P) (SCNN1A (3806) genotype TT): 2.2
% Responders T6 (SLC12A2 (1842) genotype AA): 54%
Odds Ratio (T6 v P) (SLC12A2 (1842) genotype AA): 6.2
% Responders T6 (SLC12A2 (1842) genotype AG): 47%
Odds Ratio (T6 v P) (SLC12A2 (1842) genotype AG): 2.7
% Responders T6 (SLC12A2 (1842) genotype GG): 50%
Odds Ratio (T6 v P) (SLC12A2 (1842) genotype GG): 2.5
% Responders T6 (SLC12A2 (3801) genotype CC): 58%
Odds Ratio (T6 v P) (SLC12A2 (3801) genotype CC): 7.9
% Responders T6 (SLC12A2 (3801) genotype CT): 49%
Odds Ratio (T6 v P) (SLC12A2 (3801) genotype CT): 2.4
% Responders T6 (SLC12A2 (3801) genotype TT): 50%
Odds Ratio (T6 v P) (SLC12A2 (3801) genotype TT): 2.9
% Responders T6 (TPH1 (1756) genotype GG): 51%
Odds Ratio (T6 v P) (TPH1 (1756) genotype GG): 6.1
% Responders T6 (TPH1 (1756) genotype GT): 51%
Odds Ratio (T6 v P) (TPH1 (1756) genotype GT): 2.4
% Responders T6 (TPH1 (1756) genotype TT): 45%
Odds Ratio (T6 v P) (TPH1 (1756) genotype TT): 2.2
% Responders T6 (TPH1 (3784) genotype CC): 41%
Odds Ratio (T6 v P) (TPH1 (3784) genotype CC): 1.9
% Responders T6 (TPH1 (3784) genotype CT): 52%
Odds Ratio (T6 v P) (TPH1 (3784) genotype CT): 2.5
% Responders T6 (TPH1 (3784) genotype TT): 51%
Odds Ratio (T6 v P) (TPH1 (3784) genotype TT): 5.8
% Responders T6 (all genotypes): 49%
Odds Ratio (T6 v P) (all genotypes): 2.8
% Responders T6 (all genotypes (Table 11)): 49%
Odds Ratio (T6 v P) (all genotypes (Table 11)): 2.8
response rate (high responder genotypes of HTR4, tegaserod-treated patients): > 60%
